Assay results as given in PubChem BioAssay (NCI).
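Step 1: Grow cells in 96-well plates. Step 2: Expose to compound for 48 hours at 5 concentrations. Step 3: Interpolate endpoints linearly; if unreached, use highest concentration. Here, GI50 denotes the concentration required for 50% inhibition of growth. The concentration for full growth arrest is given as TGI.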

Assays:
Assay in all cases: DTP human tumour cell line panel, 48 h
786-0 renal = system: 786-0 renal
COLO 205 colon = system: COLO 205 colon
HL-60(TB) leukemia = system: HL-60(TB) leukemia
SK-OV-3 ovarian = system: SK-OV-3 ovarian
SN12C renal = system: SN12C renal
SNB-19 CNS = system: SNB-19 CNS
SR leukemia = system: SR leukemia
UO-31 renal = system: UO-31 renal
MCF7 breast = system: MCF7 breast

| Compound | TGI (786-0 renal) | TGI (COLO 205 colon) | TGI (HL-60(TB) leukemia) | TGI (SK-OV-3 ovarian) | TGI (SN12C renal) | TGI (SNB-19 CNS) | TGI (SR leukemia) | TGI (UO-31 renal) | GI50 (786-0 renal) | GI50 (COLO 205 colon) | GI50 (HL-60(TB) leukemia) | GI50 (MCF7 breast) | TGI (MCF7 breast) | GI50 (SK-OV-3 ovarian) | GI50 (SN12C renal) | GI50 (SNB-19 CNS) | GI50 (UO-31 renal) | GI50 (SR leukemia) |
| --- | --- | --- | --- | --- | --- | --- | --- | --- | --- | --- | --- | --- | --- | --- | --- | --- | --- | --- |
| CC(C)(O)[C@@H]1CC[C@@]2(C)CCCC(O)C2(O)C1 (stereo not given in full) | > 100 µM | > 100 µM | > 100 µM | > 100 µM | > 100 µM | > 100 µM | > 100 µM | > 100 µM | – | – | – | – | – | – | – | – | – | – |
| COC(=O)C(Cc1cc(OC)c(OC)c(OC)c1)C(=O)OC | > 320 µM | > 320 µM | > 320 µM | > 320 µM | > 320 µM | – | > 320 µM | – | – | – | – | – | – | – | – | – | – | – |
| COc1ccc(NC(=O)C(=O)c2c(O)c3ccc(O)cc3oc2=O)c([N+](=O)[O-])c1 | > 100 µM | > 100 µM | > 100 µM | > 100 µM | – | > 100 µM | – | > 100 µM | – | – | – | – | – | – | – | – | – | – |
| N#CCCN(c1ccc(C=Nc2ccccc2)cc1)S(=O)(=O)c1ccccc1 | > 100 µM | > 100 µM | > 100 µM | > 100 µM | > 100 µM | > 100 µM | > 100 µM | > 100 µM | – | – | – | – | – | – | – | – | – | – |
| O=C(CC(Cl)=C(Cl)Cl)Nc1ccccc1 | > 100 µM | > 100 µM | > 100 µM | > 100 µM | > 100 µM | > 100 µM | – | > 100 µM | > 100 µM | > 100 µM | > 100 µM | > 100 µM | > 100 µM | > 100 µM | > 100 µM | > 100 µM | > 100 µM | – |
| O=C(N/C(=C\c1ccc(Cl)cc1)c1nc2ccccc2[nH]1)c1ccccc1 | 43.9 µM | 35.6 µM | – | 79.4 µM | 49.2 µM | 88 µM | – | 42.2 µM | – | – | – | – | – | – | – | – | – | – |
| Cc1c(Cl)cccc1NC(=O)C(=O)C(C(=O)c1ccccc1-c1ccccc1)C1OC(=O)c2ccccc21 (stereo not given) | 33.3 µM | 39.7 µM | 49.8 µM | > 100 µM | – | – | – | 49.4 µM | – | – | – | – | – | – | – | – | – | – |
| COC(=O)C(C(=O)C(=O)Nc1c(C)cccc1C)c1cnc2ccccc2n1 (stereo not given) | > 100 µM | > 100 µM | > 100 µM | > 100 µM | > 100 µM | > 100 µM | > 100 µM | > 100 µM | – | – | – | – | – | – | – | – | – | – |
| N.N.N.N.N.[Co+3].[I-].[N-]=[N+]=[N-] | > 100 µM | > 100 µM | – | > 100 µM | > 100 µM | > 100 µM | – | > 100 µM | > 100 µM | > 100 µM | – | – | – | > 100 µM | > 100 µM | > 100 µM | > 100 µM | – |
| COc1ccc(C2=C(Cl)c3cc(OC)c(OC)cc3C2OC)cc1OC (stereo not given) | > 100 µM | > 100 µM | > 100 µM | – | > 100 µM | > 100 µM | – | > 100 µM | – | – | – | – | – | – | – | – | – | – |
| N#Cc1c(-c2ccc(Cl)c(Cl)c2)c(-c2ccc(Cl)c(Cl)c2)nn(CC(=O)O)c1=O | > 100 µM | > 100 µM | > 100 µM | > 100 µM | > 100 µM | – | – | > 100 µM | – | – | – | – | – | – | – | – | – | – |
| O=C1C2Nc3ccccc3SC2C(=O)N1c1ccc(Br)cc1 (stereo not given) | 46.6 µM | > 100 µM | – | 61.1 µM | > 100 µM | > 100 µM | – | 68.2 µM | – | – | – | – | – | – | – | – | – | – |
| C/C(=C1/N=C(c2cc([N+](=O)[O-])ccc2Cl)N(c2cccc(C)c2)C1=O)c1cc2ccccc2oc1=O | > 100 µM | > 100 µM | > 100 µM | > 100 µM | > 100 µM | > 100 µM | > 100 µM | > 100 µM | – | – | – | – | – | – | – | – | – | – |
| COc1ccc(C/C(=N/O)C(=O)NCCc2cc(Br)c(OCCCN(C)C)c(Br)c2)cc1Br | 48.1 µM | 40.2 µM | 28.1 µM | – | 33.8 µM | 32.6 µM | – | 42.3 µM | – | – | – | – | – | – | – | – | – | – |
| Cc1ccc(S(=O)(=O)OCCn2cnc3nc(NC(=O)c4ccccc4)[nH]c(=O)c32)cc1 | > 100 µM | > 100 µM | > 100 µM | > 100 µM | > 100 µM | > 100 µM | > 100 µM | > 100 µM | – | – | – | – | – | – | – | – | – | – |
| COC(=O)CC(NC(=O)OCc1ccccc1)C(C(C)=O)C(=O)OCc1ccccc1 (stereo not given) | > 31.6 µM | > 31.6 µM | > 31.6 µM | > 31.6 µM | > 31.6 µM | – | > 100 µM | > 31.6 µM | – | – | – | – | – | – | – | – | – | – |
| CCCCCN(CCCCC)C(=O)[C@@H](CCC(=O)O)NC(=O)c1cc2ccccc2[nH]1 | > 100 µM | 94.9 µM | 41.2 µM | > 100 µM | > 100 µM | > 100 µM | – | 79.9 µM | – | – | – | – | – | – | – | – | – | – |
| O=C(Nc1ccc2[nH]nc(-c3ccncc3)c2c1)[C@@H]1CCN(CC(=O)N2CCN(c3ccc(-c4ncccn4)cc3)CC2)C1 | > 100 µM | > 82.3 µM | > 100 µM | > 100 µM | > 100 µM | > 100 µM | > 65.4 µM | – | 47.4 µM | < 0.012 µM | 0.132 µM | > 100 µM | > 100 µM | > 100 µM | > 100 µM | > 100 µM | – | 4.41 µM |
